For one data set, the system named is KG-1a. The data set is described as follows: MTT growth inhibition, KG-1a cells, 72 h. As to conditions: Homo sapiens. It counts as cell-based. As to the method: (§1) 5000 well-grown leukemia cells were taken and seeded into wells of a 96-well cell culture plate. The medium was 1640 cell medium containing 10% fetal bovine serum. 14-D-Valine-TPL with different concentrations was added, and after being uniformly mixed, the plate was placed in a carbon dioxide (5% CO2) cell incubator, and incubated at 37° C. for 72 hours. The concentration of live cells was then determined using the MTT assay. In this experiment, the cell viability in the control group (without the compound treatment) was set to be 100%, and the cell viability (%) after the action of the compound and the half maximal growth inhibitory concentration of leukemia cells at 72 hours (IC50 value at 72 hours) were calculated.

In data set [1] the test system is human acute myelogenous leukemia KG-1a cells. Briefly: KG-1a subcutaneous xenograft in NOD/SCID mice. The format is in vivo. The conditions noted are these: 14 days; for Tumor volume: KG-1a, individual mice, listed as LLV. Here is the method: (§2) 7-week old female NOD/SCID mice were taken and inoculated subcutaneously with 1×10^7 cells (0.2 ml) per mouse in axilla, with human acute myelogenous leukemia KG-1a cells on the left and human acute monocytic leukemia THP-1 cells on the right. When tumors grew to a tumor size of around 0.5 cm, the mice were randomized into groups with 3 mice each. An equivalent amount of PBS was used for the control group, and the 14-D-Valine-TPL group was divided into two groups with 0.2 mg/kg body weight and 0.4 mg/kg body weight: intragastric administration 2 times a day (one at 8 a.m. and one at 4 p.m.) for consecutive 14 days of treatment. An observation was made for total 30 days, during which the conditions of the mice such as tumor size, weight, activity, diet, and the like were measured. At the end of the experiment, the mice were sacrificed, tumor tissues were taken and the tumors were weighed, and major organs and tissues of the mice such as liver, spleen, heart, lung, large intestine, small intestine, and the like were examined.
as §2, with “the left.” for “the left and human acute monocytic leukemia THP-1 cells on the right.”, “around 50-100 mm^3,” for “around 0.5 cm,”, “the TPL-LLV” for “the 14-D-Valine-TPL”, “with 0.23” for “with 0.2”, “and 0.46” for “and 0.4”, “intragastric administration,” for “intragastric administration”
as §2, with “the left.” for “the left and human acute monocytic leukemia THP-1 cells on the right.”, “around 50-100 mm^3,” for “around 0.5 cm,”, “the TPL-DLV” for “the 14-D-Valine-TPL”, “with 0.23” for “with 0.2”, “and 0.46” for “and 0.4”, “intragastric administration,” for “intragastric administration”
as §2, with “the left.” for “the left and human acute monocytic leukemia THP-1 cells on the right.”, “around 50-100 mm^3,” for “around 0.5 cm,”, “the TPL-DLV” for “the 14-D-Valine-TPL”, “with 0.32” for “with 0.2”, “and 0.64” for “and 0.4”, “intragastric administration,” for “intragastric administration”

Data set [2] is described as follows: Body weight and organ examination of tumour-bearing mice. The format is in vivo, NOD/SCID mice. As to conditions: KG-1a-bearing mice, 14 days, individual mice, listed as LLV. Here is the method:
as §2
as §2, with “the left.” for “the left and human acute monocytic leukemia THP-1 cells on the right.”, “around 50-100 mm^3,” for “around 0.5 cm,”, “the TPL-LLV” for “the 14-D-Valine-TPL”, “with 0.23” for “with 0.2”, “and 0.46” for “and 0.4”, “intragastric administration,” for “intragastric administration”
as §2, with “the left.” for “the left and human acute monocytic leukemia THP-1 cells on the right.”, “around 50-100 mm^3,” for “around 0.5 cm,”, “the TPL-DLV” for “the 14-D-Valine-TPL”, “with 0.23” for “with 0.2”, “and 0.46” for “and 0.4”, “intragastric administration,” for “intragastric administration”
7-week old female NOD/SCID mice were taken and inoculated subcutaneously with 1×10^7 cells (0.2 ml) per mouse in axilla, with human acute myelogenous leukemia KG-1a cells on the left. When tumors grew to a tumor size of around 50-100 mm^3, the mice were randomized into groups with 3 mice each. An equivalent amount of PBS was used for the control group, and the TPL-DLV group was divided into two groups with 0.32 mg/kg body weight and 0.64 mg/kg body weight: intragastric administration, 2 times a day (one at 8 a.m. and one at 4 p.m.) for consecutive 14 days of treatment. An observation was made for total 30 days, during which the conditions of the mice such as tumor size, weight, activity, diet, and the like were measured. At the end of the experiment, the mice were sacrificed, tumor tissues were taken and the tumors were weighed, and major organs and tissues of the mice such as liver, spleen, heart, lung, large intestine, small intestine, and the like were examined. […]

The subject of a further data set is Jurkat. The data set is described as follows: MTT growth inhibition, Jurkat cells, 72 h. It counts as cell-based, human. As to the method:
(§3) 5000 well-grown leukemia cells or normal human blood cells were taken and seeded into wells of a 96-well cell culture plate. The medium was 1640 cell medium containing 10% fetal bovine serum. 14-D-Valine-TPL with different concentrations was added, and after being uniformly mixed, the plate was placed in a carbon dioxide (5% CO2) cell incubator, and incubated at 37° C. for 72 hours. The concentration of live cells was then determined using the MTT assay. In this experiment, the cell viability in the control group (without the compound treatment) was set to be 100%, and the cell viability (%) after the action of the compound the half maximal growth inhibitory concentration of leukemia cells at 72 hours (IC50 value at 72 hours) and the therapeutic window index were calculated. Therapeutic window index=IC50 value of normal blood cells/IC50 value of leukemia cells. […] A larger therapeutic window indicates a better selectivity of the compound for tumor cells.
as §1
as §1, with “well-grown lymphocytes” for “well-grown leukemia cells”

The test system of another data set is CEM. The data set is described as follows: MTT growth inhibition, CEM cells, 72 h. The format is cell-based, human. Here is the method:
as §3, §1
as §1, with “well-grown lymphocytes” for “well-grown leukemia cells”

The next data set deals with Molt-4. The data set is described as follows: MTT growth inhibition, Molt-4 cells, 72 h. It counts as cell-based, human. As to conditions: for Therapeutic window: IC50 of normal blood cells/IC50 of Molt-4. As to the method:
as §3, §1
as §1, with “well-grown lymphocytes” for “well-grown leukemia cells”

For a further data set, the system named is Sup-B15. Briefly: MTT growth inhibition, Sup-B15 cells, 72 h. The format is cell-based, human. Here is the method:
as §3, §1
as §1, with “well-grown lymphocytes” for “well-grown leukemia cells”

Another data set concerns normal human blood cells. Briefly: MTT assay, normal human blood cells, 72 h. The format is cell-based. The conditions noted are these: Homo sapiens, 72 h, Normal Blood Cell, Overall, MTT, read-out: IC50. As to the method: Leukemia cell strains: Sup-B15 (Ph+acute lymphoblastic leukemia), CEM (acute lymphoblastic leukemia, ALL), and Molt-4 (acute lymphoblastic leukemia, ALL). Normal blood cell samples: peripheral blood from healthy volunteers. • Primary reagent: 14-D-Valine-TPL of the invention. Primary instruments: cell incubator and microplate reader. (2) Experimental Method
as §3

Another data set relates to human leukemia. The conditions noted are these: human leukemia (18/45); cited from earlier work.
For another data set, the system named is L615 leukemia. As to conditions: mouse, in vivo; cited from earlier work.
For data set [3] the following is noted: oral and intravenous injection; cited from earlier work.

pIC50: −log10 of the molar value. Several values for one entry are separate records, joined by “and”; a condition that tells them apart may be missing. Equal entries are not always repeated.

With `CC(C)[C@H](N)C(=O)N[C@H](C(=O)O[C@@H]1[C@@]2(C(C)C)O[C@H]2[C@@H]2O[C@]23[C@]12O[C@H]2C[C@H]1C2=C(CC[C@@]13C)C(=O)OC2)C(C)C` [14-L-Valine-L-Valine-TPL, 14-Levo-Valine-Levo-Valine-Triptolide], the pIC50 (as a rule, the negative decadic logarithm of the IC50, by convention in mol/L) in the data set on KG-1a was 7.70. Also, the “growth of KG-1a in mice in vivo (in words)” value in data set [1] (KG-1a xenograft, intragastric 2 times a day, dose-dependent effect) was “significantly inhibit the growth”. The Tumor volume in [1] (trifluoroacetate 0.23 mg/kg intragastric 2 times a day) was 804.56 mm^3 and 644.07 mm^3 and 1105.64 mm^3; in data set [1] (trifluoroacetate 0.46 mg/kg intragastric 2 times a day) it was 383.11 mm^3 and 356.82 mm^3 and 317.61 mm^3. Moreover, the Body weight in [2] (0.23 mg/kg intragastric 2 times a day, 0.23 mg/kg) is 19.4 g and 19.7 g and 20.5 g; in data set [2] (0.46 mg/kg intragastric 2 times a day, 0.46 mg/kg), 20.0 g and 18.9 g and 18.6 g.
Consider `CC(C)[C@]12O[C@H]1[C@@H]1O[C@]13[C@]1(O[C@H]1C[C@H]1C4=C(CC[C@@]13C)C(=O)OC4)[C@@H]2O` [TPL, Triptolide], for which the pIC50 was 7.47 with Jurkat (Homo sapiens, Jurkat, MTT, 72 hours, read-out: IC50); 7.63 in the data set on CEM (Homo sapiens, CCRF-CEM, CEM, MTT, 72 hours, read-out: IC50); 7.97 in the data set on Molt-4 (Homo sapiens, Molt-4, MTT, 72 hours, read-out: IC50); 7.64 in the data set on Sup-B15 (Homo sapiens, Sup-B15, MTT, 72 hours, read-out: IC50); 7.66 in the data set on normal human blood cells. The Therapeutic window is listed as 0.64 in the data set with Jurkat (IC50 of normal blood cells/IC50 of Jurkat); 0.93 in the data set with CEM (IC50 of normal blood cells/IC50 of CEM); 2.03 in the data set on Molt-4; 2.0 with Molt-4 (listed as triptolide); 0.94 in the data set with Sup-B15 (IC50 of normal blood cells/IC50 of Sup-B15). In addition, the complete remission rate entry in the data set with human leukemia is “up to 40%”. In addition, in the data set on L615 leukemia, the “survival time of L615 leukemia mice” value is listed as “significantly prolong the survival time”. Also, the “elimination half-life (in words)” value in data set [3] is “short elimination half-life”.

(Values after US10238623B2, “C14-hydroxyl esterified amino acid derivative of triptolide, and preparation method and use thereof” (HANGZHOU WEBEN PHARMACEUTICALS INC, priority 2015, dated 2019).)
